Measured values as given in PubChem BioAssay AID330 (DTP/NCI, 2004).
Values joined by “and” are separate entries in the source; they are usually repeats but may differ in a detail not shown here. Identical values can stand only once. Toxic doses and inconclusive results are not listed. How the source made its calls: active means survival T/C of 150% or more; inactive means T/C below 125% in these data.

System: P388 leukemia ip, CD2F1 mice, survival T/C
Experiment: NCI In Vivo Anticancer Drug Screen. Data for tumor model P388 Leukemia (intraperitoneal) in CD2F1 (CDF1) mice
Settings: endpoint: median survival time, higher = longer survival
In short: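 Mice carrying the transplanted tumor received test compound or vehicle. Survival was recorded in each group, and the value is the treated-group measurement divided by that of the vehicle-treated control group.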

[1] = dose: 200.0 mg/kg/injection, schedule: Q01DX009 (ip), vehicle: other
[2] = dose: 25.0 mg/kg/injection, schedule: Q01DX009 (ip), vehicle: saline with Tween-80
[3] = dose: 50.0 mg/kg/injection, schedule: Q04DX003 (ip), vehicle: saline with Tween-80
[4] = dose: 100.0 mg/kg/injection, schedule: Q04DX003 (ip), vehicle: saline with Tween-80
[5] = dose: 50.0 mg/kg/injection, schedule: Q01DX009 (ip), vehicle: Klucel (hydroxypropylcellulose) (HPC)
[6] = dose: 100.0 mg/kg/injection, schedule: Q01DX009 (ip), vehicle: Klucel (hydroxypropylcellulose) (HPC)
[7] = dose: 200.0 mg/kg/injection, schedule: Q01DX009 (ip), vehicle: Klucel (hydroxypropylcellulose) (HPC)
[8] = dose: 100.0 mg/kg/injection, schedule: Q04DX002 (ip), vehicle: Klucel (hydroxypropylcellulose) (HPC)
[9] = dose: 400.0 mg/kg/injection, schedule: Q04DX002 (ip), vehicle: Klucel (hydroxypropylcellulose) (HPC)
[10] = dose: 15.0 mg/kg/injection, schedule: Q01DX005 (ip), vehicle: saline with Tween-80
[11] = dose: 60.0 mg/kg/injection, schedule: Q01DX005 (ip), vehicle: saline with Tween-80
[12] = dose: 50.0 mg/kg/injection, schedule: Q01DX005 (ip), vehicle: Klucel (hydroxypropylcellulose) (HPC)
[13] = dose: 100.0 mg/kg/injection, schedule: Q01DX005 (ip), vehicle: Klucel (hydroxypropylcellulose) (HPC)
[14] = dose: 200.0 mg/kg/injection, schedule: Q01DX005 (ip), vehicle: Klucel (hydroxypropylcellulose) (HPC)

Measured: T/C

Cc1[nH]c(=O)[nH]c(=O)c1/C=C/C(=O)NC(CO)CS(=O)Cc1ccccc1 (configuration not stated)
inactive: dose: 0.07 mg/kg/injection, schedule: Q01DX009 (ip), vehicle: water 100 % of control | dose: 0.15 mg/kg/injection, schedule: Q01DX009 (ip), vehicle: water 102 % of control | dose: 0.3 mg/kg/injection, schedule: Q01DX009 (ip), vehicle: water 100 % of control | dose: 0.6 mg/kg/injection, schedule: Q01DX009 (ip), vehicle: water 103 % of control | dose: 2.0 mg/kg/injection, schedule: Q01DX009 (ip), vehicle: other 114 % of control | dose: 4.0 mg/kg/injection, schedule: Q01DX009 (ip), vehicle: other 118 % of control | dose: 8.0 mg/kg/injection, schedule: Q01DX009 (ip), vehicle: other 122 % of control | dose: 16.0 mg/kg/injection, schedule: Q01DX009 (ip), vehicle: other 118 % of control | dose: 32.0 mg/kg/injection, schedule: Q01DX009 (ip), vehicle: other 99 % of control and 108 % of control | dose: 64.0 mg/kg/injection, schedule: Q01DX009 (ip), vehicle: other 103 % of control | dose: 128.0 mg/kg/injection, schedule: Q01DX009 (ip), vehicle: other 98 % of control | [1] 92 % of control | dose: 256.0 mg/kg/injection, schedule: Q01DX009 (ip), vehicle: other 100 % of control | dose: 300.0 mg/kg/injection, schedule: Q01DX009 (ip), vehicle: other 90 % of control | dose: 400.0 mg/kg/injection, schedule: Q01DX009 (ip), vehicle: other 93 % of control

CCOc1cc2cc(CCC(=O)O)c(C)cc2cn1
inactive: dose: 12.5 mg/kg/injection, schedule: Q01DX009 (ip), vehicle: distilled water + Tween-80 101 % of control | dose: 25.0 mg/kg/injection, schedule: Q01DX009 (ip), vehicle: distilled water + Tween-80 103 % of control | dose: 50.0 mg/kg/injection, schedule: Q01DX009 (ip), vehicle: distilled water + Tween-80 97 % of control | dose: 100.0 mg/kg/injection, schedule: Q01DX009 (ip), vehicle: distilled water + Tween-80 98 % of control | dose: 200.0 mg/kg/injection, schedule: Q01DX009 (ip), vehicle: distilled water + Tween-80 107 % of control

O=C1C2CCC(C2)[CH]1[Hg][Cl] (configuration not stated)
inactive: dose: 6.25 mg/kg/injection, schedule: Q01DX009 (ip), vehicle: saline with Tween-80 107 % of control | dose: 12.5 mg/kg/injection, schedule: Q01DX009 (ip), vehicle: saline with Tween-80 112 % of control | [2] 88 % of control

O=c1cc(O)n2ncnc2[nH]1
inactive: [2] 101 % of control | dose: 50.0 mg/kg/injection, schedule: Q01DX009 (ip), vehicle: saline with Tween-80 104 % of control | dose: 100.0 mg/kg/injection, schedule: Q01DX009 (ip), vehicle: saline with Tween-80 104 % of control | dose: 200.0 mg/kg/injection, schedule: Q01DX009 (ip), vehicle: saline with Tween-80 99 % of control

Cc1nc(O)c([N+](=O)[O-])c(=O)[nH]1
inactive: dose: 25.0 mg/kg/injection, schedule: Q01DX009 (ip), vehicle: other 99 % of control | dose: 50.0 mg/kg/injection, schedule: Q01DX009 (ip), vehicle: other 98 % of control | dose: 100.0 mg/kg/injection, schedule: Q01DX009 (ip), vehicle: other 110 % of control | [1] 102 % of control

Cc1cc(O)c2c(c1)C(=O)C(c1c(O)c3c(C)cccc3oc1=O)=C(c1c(O)c3c(C)cccc3oc1=O)C2=O
inactive: dose: 14.0 mg/kg/injection, schedule: Q01DX005 (ip), vehicle: Klucel (hydroxypropylcellulose) (HPC) 92 % of control | dose: 28.0 mg/kg/injection, schedule: Q01DX005 (ip), vehicle: Klucel (hydroxypropylcellulose) (HPC) 91 % of control | dose: 56.0 mg/kg/injection, schedule: Q01DX005 (ip), vehicle: Klucel (hydroxypropylcellulose) (HPC) 89 % of control | dose: 112.0 mg/kg/injection, schedule: Q01DX005 (ip), vehicle: Klucel (hydroxypropylcellulose) (HPC) 89 % of control

COc1ccc(OC)c(C2N(Cc3ccccc3N(C)C)CCCN2Cc2ccccc2N(C)C)c1
inactive: [3] 91 % of control | [4] 87 % of control

CCCCCCN(CCCCCC)CC(O)c1ccc2c3c(cccc13)CC2 (configuration not stated)
inactive: [5] 106 % of control | [6] 102 % of control | [7] 100 % of control

CCCCCC(Cn1ccnc1)c1c(Cl)cccc1Cl (configuration not stated)
inactive: dose: 25.0 mg/kg/injection, schedule: Q04DX003 (ip), vehicle: saline 103 % of control | dose: 50.0 mg/kg/injection, schedule: Q04DX003 (ip), vehicle: saline 100 % of control | dose: 100.0 mg/kg/injection, schedule: Q04DX003 (ip), vehicle: saline 91 % of control

CCc1nc(N)nc(N)c1-c1ccc(N2CCN(C)CC2)cc1
inactive: dose: 50.0 mg/kg/injection, schedule: Q01DX005 (ip), vehicle: saline with Tween-80 103 % of control | dose: 100.0 mg/kg/injection, schedule: Q01DX005 (ip), vehicle: saline with Tween-80 100 % of control | dose: 200.0 mg/kg/injection, schedule: Q01DX005 (ip), vehicle: saline with Tween-80 99 % of control

CC(/C=C/c1ccccc1)=N\Nc1c(F)c(F)c(F)c(F)c1F
inactive: [5] 103 % of control | [6] 102 % of control | [7] 100 % of control

CC(C)(C)OSc1ccccc1
inactive: [8] 101 % of control | dose: 200.0 mg/kg/injection, schedule: Q04DX002 (ip), vehicle: Klucel (hydroxypropylcellulose) (HPC) 97 % of control | [9] 102 % of control

CN(C)c1ccc(C(c2c(O)c3ccccc3oc2=O)c2c(O)c3ccccc3oc2=O)cc1
inactive: dose: 3.75 mg/kg/injection, schedule: Q01DX005 (ip), vehicle: saline with Tween-80 99 % of control | dose: 7.5 mg/kg/injection, schedule: Q01DX005 (ip), vehicle: saline with Tween-80 91 % of control | [10] 88 % of control and 98 % of control

CC(=O)Nc1nc(C)c(CCCNS(=O)(=O)c2ccc([N+](=O)[O-])cc2)c(=O)[nH]1
inactive: [10] 100 % of control | dose: 30.0 mg/kg/injection, schedule: Q01DX005 (ip), vehicle: saline with Tween-80 101 % of control | [11] 93 % of control and 95 % of control

Nc1cccc(NC=O)c1
inactive: dose: 12.5 mg/kg/injection, schedule: Q04DX003 (ip), vehicle: saline with Tween-80 100 % of control | dose: 25.0 mg/kg/injection, schedule: Q04DX003 (ip), vehicle: saline with Tween-80 110 % of control | [3] 100 % of control

NC(=O)/C(N=Nc1ccccc1C(=O)O)=N\Nc1ccccc1C(=O)O
inactive: [12] 94 % of control | [13] 95 % of control | [14] 103 % of control

CCCCCCCCCCCCCCS[As](C)C
inactive: dose: 25.0 mg/kg/injection, schedule: Q04DX002 (ip), vehicle: Klucel (hydroxypropylcellulose) (HPC) 101 % of control | dose: 50.0 mg/kg/injection, schedule: Q04DX002 (ip), vehicle: Klucel (hydroxypropylcellulose) (HPC) 94 % of control | [8] 90 % of control and 92 % of control | [9] 91 % of control

COc1ccc(N2C(=O)C(C)SC23C(=O)Nc2ccccc23)cc1 (configuration not stated)
inactive: [11] 99 % of control | dose: 120.0 mg/kg/injection, schedule: Q01DX005 (ip), vehicle: saline with Tween-80 100 % of control | dose: 240.0 mg/kg/injection, schedule: Q01DX005 (ip), vehicle: saline with Tween-80 98 % of control

CN1C(=O)/C(=C2\SC(=O)N(CN3CCCCC3)C2=O)c2ccccc21
inactive: [12] 92 % of control | [13] 100 % of control | [14] 99 % of control

Clc1ccc(C=NCCN=Cc2ccc(Cl)c(Cl)c2)cc1Cl
inactive: [4] 90 % of control | dose: 200.0 mg/kg/injection, schedule: Q04DX003 (ip), vehicle: saline with Tween-80 95 % of control | dose: 400.0 mg/kg/injection, schedule: Q04DX003 (ip), vehicle: saline with Tween-80 90 % of control

N#Cc1ccc(NN=O)cc1
inactive: dose: 3.12 mg/kg/injection, schedule: Q01DX009 (ip), vehicle: water 100 % of control | dose: 6.25 mg/kg/injection, schedule: Q01DX009 (ip), vehicle: water 105 % of control | dose: 12.5 mg/kg/injection, schedule: Q01DX009 (ip), vehicle: water 105 % of control | dose: 25.0 mg/kg/injection, schedule: Q01DX009 (ip), vehicle: water 117 % of control | dose: 100.0 mg/kg/injection, schedule: Q01DX009 (ip), vehicle: water 117 % of control
